Measured values taken from patent publication US9399631B2, “Polyphenol proteasome inhibitors, synthesis, and methods of use” (UNIVERSITY OF SOUTH FLORIDA, priority 2003, dated 2016).

How the values were obtained:
purified 20S proteasome [1] = target: T1, purified 20S proteasome (UniProt G1T4Q9); test: Inhibition of chymotrypsin-like activity of purified 20S proteasome (source not stated); format: biochemical; conditions: chymotrypsin-like activity of purified 20S proteasome
T1 construct: IC50; other: chymotrypsin-like activity of purified 20S proteasome
Description: (§1) Inhibition of purified 20S proteasome activity by natural or synthetic GTPs. Purified prokaryotic (0.5 μg) or eukaryotic (0.02 μg) 20S proteasome was incubated with 20 μM fluorogenic peptide substrate, Suc-Leu-Leu-Val-Tyr-AMC for 30 min at 37° C. in […] of assay buffer (50 mM Tris-HCl, pH 7.5), with or without a natural or synthetic tea polyphenol. After incubation, production of hydrolyzed 7-amido-4-methyl-coumarin (AMC) groups was measured using a multi-well plate VERSAFLUOR Fluorometer with an excitation filter of 380 nm and an emission filter of 460 nm (BIO-RAD), and a multi-well plate reader Wallac 1420 VICTORTM^2 with an excitation filter of 355 nm and an emission filter of 460 nm (EG&G WALLAC).

LNCaP cells [2] = test: Western blot of proteasome target proteins in LNCaP cells; format: cell-based, human; conditions: 50 μM, 3 to 12 hours
Description: Cell Culture, Cell Extract Preparation, and Western Blot Assay. Human leukemia Jurkat T and prostate cancer LNCaP cells were cultured in RPMI 1640 medium supplemented with 10% fetal calf serum, 100 units/ml of penicillin, and 100 μg/ml streptomycin. Human immortalized, non-transformed NK cells (YT cell line) (38) were cultured in RPMI 1640 supplemented with 1 mM MEM sodium pyruvate solution, 0.1 mM MEM non-essential amino acids solution, 10% fetal calf serum. 100 units/ml penicillin, and 100 μg/ml streptomycin. Normal (WI-38) and simian virus 40 (SV40)-transformed (VA-13) human fibroblasts were grown in Dulbecco's modified Eagle's medium supplemented with 10% fetal calf serum, 100 units/ml of penicillin and 100 μg/ml of streptomycin. All cells were maintained at 37° C. in a humidified incubator with an atmosphere of 5% CO2. A whole cell extract was prepared in accordance with An et al. (An, B. et al. Cell Death Differ, 1998, 5:1062-75). Briefly, cells were harvested, washed with PBS twice, and homogenized in a lysis buffer [50 mM Tris-HCl (pH 8.0), 5 mM EDTA, 150 mM NaCl, 0.5% NP-40, 0.5 mM phenylmethylsulfonyl fluoride, and 0.5 mM dithiothreitol] for 30 min at 4° C. Afterwards, lysates were centrifuged at 12,000×g for 15 min at 4° C., and the supernatants were collected as whole cell extracts. Equal amounts of protein extract (60 μg) were resolved by SDS-polyacrylamide gel electrophoresis and transferred to a nitrocellulose membrane using a Semi-Dry Transfer system (BIO-RAD, Hercules, Calif.). Jurkat T, LNCaP, or DU-145 cells were treated with various concentrations of synthetic or natural tea polyphenols for indicted hours. The enhanced chemiluminescence (ECL) Western blot analysis was then performed using specific antibodies to the proteins of interest (p^27kip, IκB-α, PARP, Bax or actin). The ratio of p27 or IκB-α to the corresponding actin was determined by scanning intensities of the protein bands.
To investigate whether (−)-EGCG-amide and (+)-EGCG-amide inhibit intact tumor cell proteasome activity, human prostate cancer LNCaP cells were treated with 25 μM of (−)- or (+)-EGCG-amide for up to 9 hours, followed by measurement of p27, IκB-α and Bax, three well-known proteasome target proteins (Pagano, M. et al. Science, 1995, 269:682-685; An, B. et al. Cell Death Differ, 1998, 5:1062-75; Sun, J. et al. Cancer Res, 2001, 61:1280-1284; Palombella, V. J. et al. Cell, 1994, 78:773-785; Thompson, J. E. et al. Cell, 1995, 80:573-582; Perkins, N. D. Trends Biochem Sci, 2000, 25:434-440; Chang, Y. C. et al. Cell Growth Differ, 1998, 9:79-84; Li, B. and Dou, Q. P. Proc Natl Acad Sci USA, 2000, 97:3850-3855; Nam, S. et al. Cancer Epidemiol Biomarkers Prey, 2001, 10:1083-1088). In this experiment (−)-EGCG and (+)-EGCG were used as positive controls.
Having determined that the synthetic GTP-1 to −5 analogs are able to inhibit the proteasomal chymotrypsin-like activity in vitro (FIG. 8), these compounds were investigated for their potency in inhibiting intact tumor cellular proteasome activity. To do so, human prostate cancer LNCaP cells were treated with one of these compounds for the indicated hours, followed by measuring levels of proteasome target proteins, p27, IκB-α, and Bax, and polyubiquitinated proteins.

Jurkat T cells = test: Flow cytometry cell cycle analysis, Jurkat T cells; format: cell-based, human; conditions: 24 hours
Description: (§2) Flow Cytometry. Cell cycle analysis based on DNA content was performed as in An et al. (An, B. et al. Cell Death Differ, 1998, 5:1062-75). At each time point, cells were harvested, counted, and washed twice with PBS. Cells (5×10^6) were suspended in 0.5 ml PBS, fixed in 5 ml of 70% ethanol overnight at −20° C., centrifuged, resuspended again in 1 ml of propidium iodide staining solution (50 μg propidium iodide, 100 units RNase A and 1 mg glucose per ml PBS), and incubated at room temperature for 30 minutes. The cells were then analyzed with FACScan (Becton Dickinson Immunocytometry, Calif.), ModFit LT and WinMDI V.2.8 cell cycle analysis software (Verity Software; Topsham, Me.). The cell cycle distribution is shown as the percentage of cells containing G1, S, G2, and M phase DNA judged by propidium iodide staining The apoptotic population is determined as the percentage of cells with sub-G1 DNA content (<G1).
Previous studies have shown that overexpression of p27 (Pagano, M. et al. Science, 1995, 269:682-685), IκB-α (Verma, I. M. et al. Genes Dev, 1995, 9:2723-2735), and Bax (Li, B. and Dou, Q. P. Proc Natl Acad Sci USA, 2000, 97:3850-3855) results in G1 arrest or apoptosis. If increased levels of these proteasome target proteins by the synthetic EGCG analogs are functional, growth inhibition of tumor cells would be expected. […] The G1 population was indeed increased by 26% and 9% by treatment with GTP-4 and GTP-5, respectively (FIG. 11).

LNCaP cells [3] = test: Soft agar colony formation assay; format: cell-based, human; conditions: 10 μM, 14 day-incubation
Description: Soft Agar Assay. The soft agar assay was performed according to Smith et al. (Smith, D. M. et al. Mol Med, 2002, 8:382-392) with a few modifications. In brief, in a six-well plate, a bottom feeder layer (0.6% agar) was prepared with DMEM media containing 10% fetal bovine serum, 100 units/ml penicillin, and 100 μg/ml streptomycin. A top layer (0.3% agar) was prepared with DMEM and the same media as described above but containing 2×10^4 prostate cancer LNCaP cells and indicated analogs or DMSO as a control. Plates were incubated at 37° C. in 5% CO2 in a humidified incubator for two weeks. MTT (1 mg/ml) was added to each well and incubated overnight to allow complete formation of purple formazan crystals. The plates were then scanned and photographed, and the number of colonies was quantified by QUANTITY ONE v.4.0.3 software (Bio-Rad, Hercules, Calif.).
The […] effects of several GTP analogs were investigated with a soft agar assay that measures the transforming activity of human tumor cells. LNCaP cells were plated in soft agar (see Materials and Methods) along with 50 μM of GTP-1, -2, -3, (−)-EGCG (as a positive control; Smith, D. M. et al. Mol Med, 2002, 8:382-392, 2002), or the solvent (as a negative control), followed by a 14 day-incubation to allow for colony formation (FIGS. 12A and 12B).
In a second experiment, LNCaP cells were plated in soft agar along with 10 μM of each indicated GTP or solvent (H2O), followed by a 14 day-incubation to allow for colony formation (FIG. 21A). […] Colonies were quantified with an automated counter and presented as mean values from triplicate independent experiments. Error bars denote standard deviations.

[4] = target: T2, 20S eukaryotic proteasome (Oryctolagus cuniculus, UniProt G1T4Q9); test: Inhibition of chymotrypsin-like activity of purified eukaryotic 20S proteasome (Suc-Leu-Leu-Val-Tyr-AMC); format: biochemical, rabbit; conditions: chymotrypsin-like activity, rabbit 20S proteasome
T2 construct: purchased BOSTON BIOCHEM (Cambridge, Mass.)
T2 sequence (G1T4Q9 1-263): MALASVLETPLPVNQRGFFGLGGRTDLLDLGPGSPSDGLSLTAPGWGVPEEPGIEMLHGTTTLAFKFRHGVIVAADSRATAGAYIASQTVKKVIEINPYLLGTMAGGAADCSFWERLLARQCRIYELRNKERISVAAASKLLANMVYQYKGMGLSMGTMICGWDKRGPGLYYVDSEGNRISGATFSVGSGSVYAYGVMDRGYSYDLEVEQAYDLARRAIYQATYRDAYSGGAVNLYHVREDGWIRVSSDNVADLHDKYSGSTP
Description: Materials. Highly purified tea polyphenols (−)-EGCG (>95%), (−)-GCG (>98%), (−)-ECG (>98%), (−)-CG (>98%), fetal calf serum, propidium iodide, 3-[4,5-dimethylthiazol-2-yl]-2,5-diphenyltetrazolium bromide (MTT), RNase A, and DMSO were purchased from Sigma (St. Louis, Mo.). (+)-EGCG, benzyl-protected-(+)-EGCG, (+)-GCG, (−)-EGCG-amide, and (+)-EGCG-amide were prepared by enantioselective synthesis (see below). Purified 20S eukaryotic proteasome from rabbit was purchased from BOSTON BIOCHEM (Cambridge, Mass.). Purified 20S prokaryotic proteasome (Methanosarcina thermophile, Recombinant, E. coli) was purchased from CALBIOCHEM (La Jolla, Calif.). Fluorogenic peptide substrates Suc-Leu-Leu-Val-Tyr-AMC (for the proteasomal chymotrypsin-like activity) was obtained from Calbiochem (La Jolla, Calif.). RPMI 1640 medium, Dulbecco's modified Eagle's medium, MEM non-essential amino acids solution, MEM-sodium pyruvate solution, penicillin, and streptomycin were from INVITROGEN (Carlsbad, Calif.). Monoclonal antibody to p27^Kip was purchased from PHARMINGEN (San Diego, Calif.); polyclonal antibodies to IκB-α, Bax and actin, and monoclonal antibody to ubiquitin were from SANTA CRUZ Biotechnology Inc. (Santa Cruz, Calif.).
as §1
Purified prokaryotic (0.5 μg) or eukaryotic (0.02 μg) 20S proteasome was incubated with 20 μM fluorogenic peptide substrate, Suc-Leu-Leu-Val-Tyr-AMC for 30 minutes at 37° C. in 100 μl of assay buffer ([…] Tris-HCl, pH 7.5), with or without a natural or synthetic tea polyphenol. After incubation, production of hydrolyzed AMC groups was measured using a multi-well plate VERSAFLUOR Fluorometer with an excitation filter of 380 nm and an emission filter of 460 nm.
(−)-EGCG at 1 μM was incubated with eukaryotic 20S proteasome (0.02 μg) and suc-LLVY-AMC (20 μM) for the times indicated in FIG. 7. The chymotrypsin activity was measured and graphed in FIG. 7. Values are means from 4 independent experiments, and error bars represent standard deviations.
In the second experiment (−)-EGCG at 1 μM was pre-incubated with (SDS-pre) or without 0.01% SDS (no SDS) for 1 hour, followed by addition of eukaryotic 20S proteasome (0.02 μg) and suc-LLVY-AMC (20 μM). “SDS-post” represents the same treatment as “no SDS” except 0.01% SDS was added 1 hour after addition of the proteasome, (−)-EGCG and the substrate. AMC liberation was measured by fluorescence at each indicated time point and the percentage of chymotrypsin activity was determined. Values are means from 4 independent experiments, and error bars represent standard deviations.

LNCaP cells [5] = test: Flow cytometry cell cycle analysis, LNCaP cells; format: cell-based, human; conditions: 10 μM, 24 hours
Description: as §2
It has been shown that overexpression of p27 and IκB-α results in G1 arrest. If increased levels of these proteasome target proteins by synthetic GTPs are functional, it would be expected to see growth arrest of tumor cells in G1 phase. To test this hypothesis, asynchronous prostate LNCaP cells were treated with 10 μM of synthetic (+)-EGCG or (+)-GCG, along with each respective natural GTP as control, for 24 hours. Cells were then harvested, and analyzed by cell cycle analysis by flow cytometry. […] Growth arrest was determined by the increase in the percentage of the G1 population.

purified 20S proteasome [6] = test: Inhibition of chymotrypsin-like activity of purified 20S proteasome (source not stated); format: biochemical
Description: as §1

Row | Compound | IC50 (purified 20S proteasome [1]) | levels of Bax protein (LNCaP cells [2]) | levels of proteasome target proteins (p27, IκB-α) (LNCaP cells [2]) | increase of G1 population (Jurkat T cells) | increase of sub-G1 DNA cell population (Jurkat T cells) | inhibition of the proteasome (in words) (purified 20S proteasome [6]) | also measured
1 | O=C(O[C@H]1Cc2ccccc2C[C@H]1OC(=O)c1cc(O)c(O)c(O)c1)c1cc(O)c(O)c(O)c1 [GTP-4] | 340 nM | increased only at 12 hours | significant increase in levels of p27 and IκB-α | 26% | ~15% | – | –
2 | O=C(OC1Cc2c(O)cc(O)cc2OC1c1cc(O)c(O)c(O)c1)c1cc(O)c(O)c(O)c1 (single isomer, unassigned; (-)) [(−)-GCG, reference compound] | – | – | – | – | – | – | inhibition of colony formation (LNCaP cells [3]): 99%; IC50 [4]: 610 nM; increase of G1 population (G1 arrest) (LNCaP cells [5]): ~14%
3 | COC(C)=O [methyl acetate, reference compound] | – | – | – | – | – | cannot inhibit the proteasome | –
4 | COC(=O)c1cc(O)c(O)c(O)c1 [methyl gallate, reference compound] | – | – | – | – | – | cannot inhibit the proteasome | –
5 | benzyl hydroxybenzoate [reference compound] | – | – | – | – | – | cannot inhibit the proteasome | –
6 | O=C(O[C@H]1Cc2cc(O)ccc2C[C@H]1OC(=O)c1cc(O)c(O)c(O)c1)c1cc(O)c(O)c(O)c1 [GTP-5] | 730 nM | increased only at 12 hours | significant increase in levels of p27 and IκB-α | 9% | ~15% | – | –
